{"source": "patent US9926293B2", "about": "“Multivalent RAS binding compounds” (THE TRUSTEES OF COLUMBIA UNIVERSITY IN THE CITY OF NEW YORK, priority 2014, dated 2018)", "key": {"[1]": {"target": "T1, KRAS^G12D D38A (Homo sapiens, UniProt P01116, D38A/G12D)", "T1 construct": "His6 (N); made in house", "T1 sequence (P01116 1-169 isoform P01116-2 G12D/D38A)": "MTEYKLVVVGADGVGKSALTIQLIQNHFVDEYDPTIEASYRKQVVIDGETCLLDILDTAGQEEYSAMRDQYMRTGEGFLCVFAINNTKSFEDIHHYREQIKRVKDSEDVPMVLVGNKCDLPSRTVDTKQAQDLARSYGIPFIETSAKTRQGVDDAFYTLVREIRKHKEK", "assay": "Microscale thermophoresis on binding-site mutant KRAS^G12D D38A", "conditions": "for Kd: MST", "procedure": "Mutagenesis of the KRAS^G12D plasmid was performed using a QuikChange XL site-directed mutagenesis kit from Agilent technologies, according to the manufacturer's protocol. Primers were designed using the Agilent QuikChange Primer Design application and purchased from Integrated DNA Technologies. KRAS^G12D D38A forward primer 5′ ATATGATCCAACAATAGAGGCTTCCTACAGGAAGCAAGTAG 3′ (SEQ ID NO: 66), KRAS^G12D D38A reverse primer 5′ CTACTTGCTTCCTGTAGGAAGCCTCTATTGTTGGATCATAT 3′ (SEQ ID NO: 67), KRAS^G12D I36N forward primer 5′ CATTTTGTGGACGAATATGATCCAACAAATGAGGATTCCTACAGG 3′ (SEQ ID NO: 68), KRAS^G12D I36N reverse primer 5′ CCTGTAGGAATCCTCATTTGTTGGATCATATTCGTCCACAAAATG 3′ (SEQ ID NO: 69). DNA sequencing was performed to confirm the correct amino acid sequence of the construct (GeneWiz, Inc.).\n(§1) KRAS^G12D (250 μM) in 25 mM HEPES, 100 mM sodium chloride, 2 mM TCEP with 20 mM EDTA and 1 mM GppNHp was shaken at 220 rpm at 30° C. to remove the endogenous nucleotide, The solution was placed on ice for 2 minutes prior to the addition of 65 mM MgCl2. After an additional 10 minutes incubation on ice, 200 uL of a 10 uM solution of KRAS^G12D was combined with 200 uL of a 20 uM solution of NT-647-NHS-ester dye (from a 652.4 μM stock). The protein/dye mixture was rotated at 4° C. for 30 minutes, before being separated from the excess dye and buffer exchanged into 25 mM Tris, 100 mM sodium chloride, 2 mM TCEP, and 5 mM MgCl2 via a nap-5 column. The test compounds were arrayed across a 16-point dilution series consisting of 1.5% DMSO with 25 mM Tris, 100 mM NaCl, 2 mM TCEP, 5 mM MgCl2 and 0.05% tween-20. Thermophoretic movement of the fluorescently labeled protein with the inhibitors was performed using a Monolith NT.115 (Nanotemper Technologies). RALA and RHOA were purchased commercially from Abcam (RALA CN:ab102555, RHOA CN:ab101594).\nA set of 45 of the closest matches (ranging from 0.85-0.97 Tanimoto coefficient) were synthesized (based on Scheme 2 with appropriate modifications) and tested for their ability to bind to KRAS^G12D by differential scanning fluorimetry."}, "[2]": {"target": "GppNHp-loaded RHEB (Homo sapiens, UniProt Q15382)", "sequence (Q15382 whole entry)": "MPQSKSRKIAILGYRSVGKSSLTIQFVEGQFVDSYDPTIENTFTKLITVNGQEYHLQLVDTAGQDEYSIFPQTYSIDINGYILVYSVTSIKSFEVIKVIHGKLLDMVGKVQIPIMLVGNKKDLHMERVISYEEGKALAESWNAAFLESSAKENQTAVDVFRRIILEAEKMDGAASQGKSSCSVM", "assay": "Microscale thermophoresis on GppNHp-loaded RHEB", "format": "binding", "conditions": "MST, up to 190 μM", "procedure": "as §1\n(§2) To provide evidence that the compound indeed was selective for RAS GTPases, MST binding measurements were performed on GppNHp-loaded RHEB, RHOA and RALA (FIG. 14J)."}, "[3]": {"target": "T2, GppNHp-loaded RHOA (Homo sapiens, UniProt P61586)", "T2 construct": "purchased Abcam ab101594", "assay": "Microscale thermophoresis on GppNHp-loaded RHOA", "format": "binding", "conditions": "MST, up to 190 μM", "procedure": "as §1, §2"}, "[4]": {"system": "BJeLR (HRAS^G12V) cells", "assay": "Gene expression analysis by RT-qPCR", "format": "cell-based", "procedure": "FIG. 22A-FIG. 22D show BJeLR cells were treated with DMSO, 31 MEW44 at 5 μM and/or 25 μM alongside BJHLT treated with DMSO for one hour. Cells were lysed and the RNA was extracted, converted to cDNA and quantified by qPCR.\nGene Expression Analysis by RT-qPCR\nCells from six-well plates were trypsinized and centrifuged at 3,000 rpm for 3 minutes. The cell pellet was then lysed and the RNA was extracted using QIAshreader and RNAeasy extraction kits (QIAGEN) according to the manufacturer's protocol. 2 micrograms of RNA from each sample was then converted to cDNA using the TaqMan RT Kit (Applied Biosystems). Primers for Quantitative PCR (qPCR) were designed with Primer Express. qPCR was performed using Power SYBR Green Master Mix (Applied Biosystems) in a 96-well format, in triplicate, using an Applied Biosystems 7300 Cycler set to absolute quantification. Expression changes were computed using the ΔΔCt method with GAPDH as an internal reference gene. The primers used were as follows: urokinase-type plasminogen activator (uPA) Forward 5′ […] 3′ (SEQ ID NO: 54), reverse 5′ […] 3′ (SEQ ID NO: 55); matrix metalloprotease 9 (MMP9) forward 5′ […] 3′ (SEQ ID NO: 56), reverse 5′ […] 3′ (SEQ ID NO: 57); lactate dehydrogenase (LDH) forward 5′ […] 3′ (SEQ ID NO: 58), reverse 5′ […] 3′ (SEQ ID NO: 59); CMYC forward 5′ […] 3′ (SEQ ID NO: 60), reverse 5′ […] 3′ (SEQ ID NO: 61)."}, "[5]": {"assay": "In vivo pharmacokinetic analysis", "parameters": "species or system male C57 adult mice", "conditions": "male, C57, mouse, 20 mg/kg, plasma over 12 hours", "procedure": "In Vivo Pharmacokinetic Analysis\nThe dose formulation was prepared freshly in the morning of dosing day. A total of 42 male C57 adult mice, each approximately 25 grams in body weight, were administered at 20 mg/kg dose via a single IV bolus injection or a single oral gavage. Blood samples (approximately 400 μL) were collected from three mice per time point via terminal brachial bleed at pre-dose and 30 minutes, 1 hour, 2 hours, 4 hours, 8 hours and 12 hours post-dose. Blood samples were placed into tubes containing K2 EDTA anti-coagulant, and centrifuged at about 2,100 g (rcf) for 10 minutes at 4° C. to separate plasma. Following centrifugation, the resulting plasma was transferred to clean tubes and stored frozen at −80° C. The mouse plasma samples (50 μL) were aliquoted, spiked with internal standard (250 ng/mL tolbutamide), and then extracted with protein precipitation. The supernatant of each sample was diluted and injected into a LC-MS/MS system. The data acquisition and processing were performed using a Sciex API 5500 mass spectrometer with Analyst 1.6.2 software. The standard curve range for the plasma samples was analyzed using a calibration curve of 0.5-5000 ng/mL. The pharmacokinetic (PK) analysis and interpretation of the results were conducted using Winnonlin Phoenix Software."}}}
{"smiles": "NC1(C(=O)NCCCn2cc(-c3ccc(OC(F)(F)F)cc3)c3cc(CN4CCN(Cc5c(Cl)cccc5Cl)CC4)ccc32)CCNCC1", "note": "[Compound 31MEW44, 4-amino-N-(3-(5-((4-(2,6-dichlorobenzyl)piperazin-1-yl)methyl)-3-(4-(trifluoromethoxy)phenyl)-1H-indol-1-yl)propyl)piperidine-4-carboxamide]", "values": [{"measurement": "loss in binding affinity", "setting": "[1]; I36N and D38A mutants vs KRAS^G12D", "result": "3.5 to 21", "unit": "fold"}, {"measurement": "Kd", "setting": "[1]; 31MEW44, FIG. 14H", "result": 33, "unit": "µM"}, {"measurement": "Kd", "setting": "[1]; 31MEW44, first experiment", "result": 1.9, "unit": "µM"}, {"measurement": "loss in binding affinity", "setting": "[1]; binding-site mutants D38A and I36N", "result": "5-10 fold"}, {"measurement": "binding", "setting": "[2]", "result": "no binding was observed"}, {"measurement": "binding", "setting": "[3]", "result": "no binding was observed"}, {"measurement": "CMYC mRNA", "setting": "[4]", "result": "dose-dependent reduction in CMYC mRNA"}, {"measurement": "LDH expression", "setting": "[4]", "result": "decreased these elevated levels of LDH, dose-dependently"}, {"measurement": "MMP9 expression", "setting": "[4]", "result": "Downregulation of MMP9 expression"}, {"measurement": "DUSP6 and IDH2 expression profile", "setting": "[4]; 5 μM and 25 μM", "result": "profile characteristic of decreased activation of RAS signaling"}, {"measurement": "uPA expression", "setting": "[4]; 5 μM and 25 μM", "result": "dose-dependent decrease in uPA expression"}, {"measurement": "half-life", "setting": "[5]; intravenous delivery, no elimination", "result": "> 12", "unit": "h"}, {"measurement": "half-life", "setting": "[5]; oral delivery", "result": 3.1, "unit": "h"}]}
